Data published in US20150182434A1, “COSMETIC USE OF NAPTHOIC ACID DERIVATIVES” (Avon Products, Inc., priority 2013, published 2015).

Molecular target: T1, recombinant human (rh) KLK5 (Homo sapiens, UniProt Q9Y337)
T1 construct: purchased R&D Systems 1108-SE
T1 sequence (Q9Y337 23-293): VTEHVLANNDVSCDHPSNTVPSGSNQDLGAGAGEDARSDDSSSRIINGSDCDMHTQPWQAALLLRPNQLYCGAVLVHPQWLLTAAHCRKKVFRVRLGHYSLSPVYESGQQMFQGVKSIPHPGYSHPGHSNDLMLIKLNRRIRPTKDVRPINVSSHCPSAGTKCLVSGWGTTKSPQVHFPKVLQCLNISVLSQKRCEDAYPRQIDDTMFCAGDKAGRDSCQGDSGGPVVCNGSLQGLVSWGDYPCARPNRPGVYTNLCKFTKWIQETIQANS
Assay: Enzymatic activity of KLK5 (fluorogenic peptide substrate Boc-V-P-R-AMC)
Type: biochemical
Details: FIG. 1; for KLK5 activity compared to that of salicylic acid: rhKLK5, rate of enzyme activity relative to salicylic acid
Excerpt: In the stratum corneum, skin's outermost layer, cell-to-cell cohesion depends primarily on proteins known as the corneodesmosomes. During skin remodeling and renewal dead cells are shed from the skin surface by the action of native proteases that break down the corneodesmosomes. […] Hypothetically, up-regulation of the activities of these proteases using different active candidates could be utilized to increase the rate of shedding of dead skin, thus providing a natural means for skin exfoliation. To this end, the enzymatic activity of a member of the KLK family, recombinant human (rh) KLK5, was monitored following pre-incubation with actives and measuring the rate of peptide bond cleavage of a synthetic substrate.
Enzymatic activity of KLK5 was measured by incubating recombinant human (rh) KLK5 protease (R&D Systems, Cat No. 1108-SE) with a specific fluorogenic peptide substrate Boc-V-P-R-AMC (R& D Systems, Cat No. ES011). The substrate is conjugated to a quenched fluorescent group. Upon cleavage of the adjacent peptide bond, the fluorescent signal is released, resulting in a measureable emission at […] when excited at 340 nm wavelength. Increase in fluorescence reading indicates an increase in rhKLK5 activity. The test compounds were reacted with recombinant rhKLK5 protease for 60 seconds followed by addition of Boc-V-P-R-AMC Fluorogenic Peptide Substrate. After 60 seconds of incubation, fluorescence was measured at 340 nm (Excitation wavelength) and 485 nm (Emission wavelength) every 1 minute for 7 minutes. Rate (kinetics) of enzyme activity was calculated as follows: Rate of enzyme activity=Change of fluorescent reading (after background correction)/Change of reaction time (min). Percent change of activity due to a test compound was calculated by comparing rate of enzyme activity in the presence of the test compound to that of a control without the test compound and statistical significance was calculated using a t-test. Additionally, the rate of activity of the compounds was compared to that of salicylic acid.

| SMILES | KLK5 activity compared to that of salicylic acid | percentage of KLK5 activity relative to salicylic acid (salicylic acid as the benchmark) [%] |
| --- | --- | --- |
| O=C(O)c1c(O)ccc2ccccc12 [2-hydroxy-1-napthoic acid] | substantially less KLK5 activity than salicylic acid | – |
| O=C(O)c1cc2ccccc2cc1O [3-hydroxy-2-napthoic acid] | potent stimulator of KLK5, as it is increased beyond salicylic acid | – |
| O=C(O)c1ccc2ccccc2c1O [1-hydroxy-2-napthoic acid] | substantially less KLK5 activity than salicylic acid | – |
| O=C(O)c1ccccc1O [salicylic acid] | – | 100 |
